# Data reported in US20260130395A1, “Water Dispersible Botanical Compositions” (Aquila Black Limited, priority 2021, published 2026).
# Test: Stability of cannabinoid compounds and Vitamin E components in Beverage 1 (AB White) by LCMSMS
# Assay type: physicochemical
# Settings: for Stability of Plant-Derived Cannabinoid Compounds in AB White, 8° C.: AB White stored at 8° C.; for Stability of Plant-Derived Cannabinoid Compounds in AB White, 21-25° C.: AB White stored at 21-25° C.
compound,measurement,setting,value
"C=C(C)[C@@H]1CCC(C)=C[C@H]1c1c(O)cc(CCC)cc1O [CBDV, cannabidivarin]","Stability of Plant-Derived Cannabinoid Compounds in AB White, 8° C.",0 days,0.150 µg/mL
same,"Stability of Plant-Derived Cannabinoid Compounds in AB White, 8° C.",1 days,0.146 µg/mL
same,"Stability of Plant-Derived Cannabinoid Compounds in AB White, 8° C.",2 days,0.147 µg/mL
same,"Stability of Plant-Derived Cannabinoid Compounds in AB White, 8° C.",3 days,0.146 µg/mL
same,"Stability of Plant-Derived Cannabinoid Compounds in AB White, 8° C.",5 days,0.147 µg/mL
same,"Stability of Plant-Derived Cannabinoid Compounds in AB White, 8° C.",8 days,0.148 µg/mL
same,"Stability of Plant-Derived Cannabinoid Compounds in AB White, 8° C.",9 days,0.146 µg/mL
same,"Stability of Plant-Derived Cannabinoid Compounds in AB White, 8° C.",10 days,0.148 µg/mL
same,"Stability of Plant-Derived Cannabinoid Compounds in AB White, 8° C.",11 days,0.150 µg/mL
same,"Stability of Plant-Derived Cannabinoid Compounds in AB White, 8° C.",12 days,0.150 µg/mL
same,"Stability of Plant-Derived Cannabinoid Compounds in AB White, 8° C.",15 days,0.150 µg/mL
same,"Stability of Plant-Derived Cannabinoid Compounds in AB White, 8° C.",16 days,0.148 µg/mL
same,"Stability of Plant-Derived Cannabinoid Compounds in AB White, 8° C.",17 days,0.146 µg/mL
same,"Stability of Plant-Derived Cannabinoid Compounds in AB White, 8° C.",18 days,0.146 µg/mL
same,"Stability of Plant-Derived Cannabinoid Compounds in AB White, 8° C.",19 days,0.149 µg/mL
same,"Stability of Plant-Derived Cannabinoid Compounds in AB White, 8° C.",22 days,0.149 µg/mL
same,"Stability of Plant-Derived Cannabinoid Compounds in AB White, 8° C.",23 days,0.149 µg/mL
same,"Stability of Plant-Derived Cannabinoid Compounds in AB White, 8° C.",24 days,0.147 µg/mL
same,"Stability of Plant-Derived Cannabinoid Compounds in AB White, 8° C.",25 days,0.149 µg/mL
same,"Stability of Plant-Derived Cannabinoid Compounds in AB White, 8° C.",26 days,0.152 µg/mL
same,"Stability of Plant-Derived Cannabinoid Compounds in AB White, 8° C.",29 days,0.151 µg/mL
same,"Stability of Plant-Derived Cannabinoid Compounds in AB White, 8° C.",30 days,0.148 µg/mL
same,"Stability of Plant-Derived Cannabinoid Compounds in AB White, 8° C.",60 days,0.143 µg/mL
same,"Stability of Plant-Derived Cannabinoid Compounds in AB White, 8° C.",90 days,0.146 µg/mL
same,"Stability of Plant-Derived Cannabinoid Compounds in AB White, 8° C.",120 days,0.144 µg/mL
same,"Stability of Plant-Derived Cannabinoid Compounds in AB White, 8° C.",150 days,0.150 µg/mL
same,"Stability of Plant-Derived Cannabinoid Compounds in AB White, 8° C.",180 days,0.150 µg/mL
same,"Stability of Plant-Derived Cannabinoid Compounds in AB White, 8° C.",210 days,0.147 µg/mL
same,"Stability of Plant-Derived Cannabinoid Compounds in AB White, 8° C.",240 days,0.145 µg/mL
same,"Stability of Plant-Derived Cannabinoid Compounds in AB White, 8° C.",270 days,0.143 µg/mL
same,"Stability of Plant-Derived Cannabinoid Compounds in AB White, 8° C.",300 days,0.143 µg/mL
same,"Stability of Plant-Derived Cannabinoid Compounds in AB White, 8° C.",330 days,0.146 µg/mL
same,"Stability of Plant-Derived Cannabinoid Compounds in AB White, 8° C.",360 days,0.145 µg/mL
same,"Stability of Plant-Derived Cannabinoid Compounds in AB White, 8° C.",390 days,0.143 µg/mL
same,"Stability of Plant-Derived Cannabinoid Compounds in AB White, 8° C.",420 days,0.144 µg/mL
same,"Stability of Plant-Derived Cannabinoid Compounds in AB White, 8° C.",450 days,0.145 µg/mL
same,"Stability of Plant-Derived Cannabinoid Compounds in AB White, 8° C.",480 days,0.143 µg/mL
same,"Stability of Plant-Derived Cannabinoid Compounds in AB White, 8° C.",510 days,0.138 µg/mL
same,"Stability of Plant-Derived Cannabinoid Compounds in AB White, 8° C.",540 days,0.139 µg/mL
same,"Stability of Plant-Derived Cannabinoid Compounds in AB White, 8° C.",570 days,0.138 µg/mL
same,"Stability of Plant-Derived Cannabinoid Compounds in AB White, 21-25° C.",0 days,0.150 µg/mL
same,"Stability of Plant-Derived Cannabinoid Compounds in AB White, 21-25° C.",1 days,0.149 µg/mL
same,"Stability of Plant-Derived Cannabinoid Compounds in AB White, 21-25° C.",2 days,0.148 µg/mL
same,"Stability of Plant-Derived Cannabinoid Compounds in AB White, 21-25° C.",3 days,0.149 µg/mL
same,"Stability of Plant-Derived Cannabinoid Compounds in AB White, 21-25° C.",5 days,0.144 µg/mL
same,"Stability of Plant-Derived Cannabinoid Compounds in AB White, 21-25° C.",8 days,0.145 µg/mL
same,"Stability of Plant-Derived Cannabinoid Compounds in AB White, 21-25° C.",9 days,0.148 µg/mL
same,"Stability of Plant-Derived Cannabinoid Compounds in AB White, 21-25° C.",10 days,0.147 µg/mL
same,"Stability of Plant-Derived Cannabinoid Compounds in AB White, 21-25° C.",11 days,0.150 µg/mL
same,"Stability of Plant-Derived Cannabinoid Compounds in AB White, 21-25° C.",12 days,0.152 µg/mL
same,"Stability of Plant-Derived Cannabinoid Compounds in AB White, 21-25° C.",15 days,0.151 µg/mL
same,"Stability of Plant-Derived Cannabinoid Compounds in AB White, 21-25° C.",16 days,0.145 µg/mL
same,"Stability of Plant-Derived Cannabinoid Compounds in AB White, 21-25° C.",17 days,0.150 µg/mL
same,"Stability of Plant-Derived Cannabinoid Compounds in AB White, 21-25° C.",18 days,0.151 µg/mL
same,"Stability of Plant-Derived Cannabinoid Compounds in AB White, 21-25° C.",19 days,0.148 µg/mL
same,"Stability of Plant-Derived Cannabinoid Compounds in AB White, 21-25° C.",22 days,0.148 µg/mL
same,"Stability of Plant-Derived Cannabinoid Compounds in AB White, 21-25° C.",23 days,0.148 µg/mL
same,"Stability of Plant-Derived Cannabinoid Compounds in AB White, 21-25° C.",24 days,0.145 µg/mL
same,"Stability of Plant-Derived Cannabinoid Compounds in AB White, 21-25° C.",25 days,0.145 µg/mL
same,"Stability of Plant-Derived Cannabinoid Compounds in AB White, 21-25° C.",26 days,0.149 µg/mL
same,"Stability of Plant-Derived Cannabinoid Compounds in AB White, 21-25° C.",29 days,0.147 µg/mL
same,"Stability of Plant-Derived Cannabinoid Compounds in AB White, 21-25° C.",30 days,0.151 µg/mL
same,"Stability of Plant-Derived Cannabinoid Compounds in AB White, 21-25° C.",60 days,0.149 µg/mL
same,"Stability of Plant-Derived Cannabinoid Compounds in AB White, 21-25° C.",90 days,0.143 µg/mL
same,"Stability of Plant-Derived Cannabinoid Compounds in AB White, 21-25° C.",120 days,0.141 µg/mL
same,"Stability of Plant-Derived Cannabinoid Compounds in AB White, 21-25° C.",150 days,0.146 µg/mL
same,"Stability of Plant-Derived Cannabinoid Compounds in AB White, 21-25° C.",180 days,0.141 µg/mL
same,"Stability of Plant-Derived Cannabinoid Compounds in AB White, 21-25° C.",210 days,0.142 µg/mL
same,"Stability of Plant-Derived Cannabinoid Compounds in AB White, 21-25° C.",240 days,0.145 µg/mL
same,"Stability of Plant-Derived Cannabinoid Compounds in AB White, 21-25° C.",270 days,0.148 µg/mL
same,"Stability of Plant-Derived Cannabinoid Compounds in AB White, 21-25° C.",300 days,0.142 µg/mL
same,"Stability of Plant-Derived Cannabinoid Compounds in AB White, 21-25° C.",330 days,0.144 µg/mL
same,"Stability of Plant-Derived Cannabinoid Compounds in AB White, 21-25° C.",360 days,0.146 µg/mL
same,"Stability of Plant-Derived Cannabinoid Compounds in AB White, 21-25° C.",390 days,0.146 µg/mL
same,"Stability of Plant-Derived Cannabinoid Compounds in AB White, 21-25° C.",420 days,0.143 µg/mL
same,"Stability of Plant-Derived Cannabinoid Compounds in AB White, 21-25° C.",450 days,0.144 µg/mL
same,"Stability of Plant-Derived Cannabinoid Compounds in AB White, 21-25° C.",480 days,0.143 µg/mL
same,"Stability of Plant-Derived Cannabinoid Compounds in AB White, 21-25° C.",510 days,0.139 µg/mL
same,"Stability of Plant-Derived Cannabinoid Compounds in AB White, 21-25° C.",540 days,0.140 µg/mL
same,"Stability of Plant-Derived Cannabinoid Compounds in AB White, 21-25° C.",570 days,0.138 µg/mL
